Measured values taken from PMC6149898, “GPCR Modulation of Thieno[2,3-b]pyridine Anti-Proliferative Agents” (Molecules : A Journal of Synthetic Chemistry and Natural …, 2017).

Experiments:
BR:MDA-MB-231 = tested on: BR:MDA-MB-231; set-up: method as in earlier work; conditions: NCI-60 panel; ref [4],[5],[6],[7]; cited from earlier work
CNS:SNB-19 = tested on: CNS:SNB-19; set-up: method as in earlier work; conditions: NCI-60 panel; ref [4],[5],[6],[7]; cited from earlier work
CO:HCC-2998 = tested on: CO:HCC-2998; set-up: method as in earlier work; conditions: NCI-60 panel; ref [4],[5],[6],[7]; cited from earlier work
CO:HT29 = tested on: CO:HT29; set-up: method as in earlier work; conditions: NCI-60 panel; ref [4],[5],[6],[7]; cited from earlier work
LE:SR = tested on: LE:SR; set-up: method as in earlier work; conditions: NCI-60 panel; ref [4],[5],[6],[7]; cited from earlier work
LC:NCI-H226 = tested on: LC:NCI-H226; set-up: method as in earlier work; conditions: NCI-60 panel; ref [4],[5],[6],[7]; cited from earlier work
OV:OVCAR-8 = tested on: OV:OVCAR-8; set-up: method as in earlier work; conditions: NCI-60 panel; ref [4],[5],[6],[7]; cited from earlier work
OV:SK-OV-3 = tested on: OV:SK-OV-3; set-up: method as in earlier work; conditions: NCI-60 panel; ref [4],[5],[6],[7]; cited from earlier work
RE:A498 = tested on: RE:A498; set-up: method as in earlier work; conditions: NCI-60 panel; ref [4],[5],[6],[7]; cited from earlier work
ADRA1B = ADRA1B (Homo sapiens, UniProt P35368); assay: gpcrMAX PathHunter beta-arrestin
Chain of ADRA1B (P35368 whole entry): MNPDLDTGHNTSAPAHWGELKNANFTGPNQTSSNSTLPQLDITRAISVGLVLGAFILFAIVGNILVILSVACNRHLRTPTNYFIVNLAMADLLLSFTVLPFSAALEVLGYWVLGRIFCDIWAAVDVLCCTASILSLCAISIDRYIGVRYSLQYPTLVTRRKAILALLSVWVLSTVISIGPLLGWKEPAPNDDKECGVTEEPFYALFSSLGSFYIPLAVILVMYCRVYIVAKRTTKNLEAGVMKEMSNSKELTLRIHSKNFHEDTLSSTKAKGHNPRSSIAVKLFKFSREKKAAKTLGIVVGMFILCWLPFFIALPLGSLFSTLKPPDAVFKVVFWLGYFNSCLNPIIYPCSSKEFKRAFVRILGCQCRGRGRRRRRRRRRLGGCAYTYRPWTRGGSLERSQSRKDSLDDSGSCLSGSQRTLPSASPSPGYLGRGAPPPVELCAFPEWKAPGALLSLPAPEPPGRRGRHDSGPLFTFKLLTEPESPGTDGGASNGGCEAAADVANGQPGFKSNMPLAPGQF

ADRA2A = ADRA2A (Homo sapiens, UniProt P08913); assay: gpcrMAX PathHunter beta-arrestin
AGTRL1 = AGTRL1 (Homo sapiens, UniProt P35414); assay: gpcrMAX PathHunter beta-arrestin
BRS3 = BRS3 (Homo sapiens, UniProt P32247); assay: gpcrMAX PathHunter beta-arrestin
Chain of BRS3 (P32247 whole entry): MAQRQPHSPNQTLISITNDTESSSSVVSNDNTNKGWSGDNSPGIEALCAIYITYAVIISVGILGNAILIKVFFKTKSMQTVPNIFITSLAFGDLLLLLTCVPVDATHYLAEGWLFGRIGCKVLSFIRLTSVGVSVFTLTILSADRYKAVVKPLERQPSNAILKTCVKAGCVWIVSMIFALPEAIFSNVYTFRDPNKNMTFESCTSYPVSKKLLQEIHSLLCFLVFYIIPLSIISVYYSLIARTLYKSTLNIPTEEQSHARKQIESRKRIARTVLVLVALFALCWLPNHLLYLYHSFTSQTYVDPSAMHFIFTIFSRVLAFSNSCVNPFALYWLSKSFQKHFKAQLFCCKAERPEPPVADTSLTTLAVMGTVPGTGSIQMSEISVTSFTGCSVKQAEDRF

CALCRL-RAMP1 = CALCRL-RAMP1 (Homo sapiens, UniProt O60894+Q16602); assay: gpcrMAX PathHunter beta-arrestin
Chain of CALCRL-RAMP1 (Q16602 23-461): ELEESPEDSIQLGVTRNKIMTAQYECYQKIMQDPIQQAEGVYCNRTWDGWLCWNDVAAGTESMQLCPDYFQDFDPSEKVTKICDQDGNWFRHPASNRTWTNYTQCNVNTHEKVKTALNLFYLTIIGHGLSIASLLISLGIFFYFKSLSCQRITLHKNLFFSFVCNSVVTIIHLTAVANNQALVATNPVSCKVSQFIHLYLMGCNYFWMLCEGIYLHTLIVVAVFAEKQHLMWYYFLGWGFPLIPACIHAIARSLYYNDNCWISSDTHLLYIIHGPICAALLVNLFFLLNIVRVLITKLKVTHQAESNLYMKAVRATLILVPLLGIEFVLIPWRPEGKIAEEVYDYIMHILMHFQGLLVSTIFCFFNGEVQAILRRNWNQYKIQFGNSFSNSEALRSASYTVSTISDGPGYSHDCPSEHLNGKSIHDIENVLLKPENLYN
Chain of CALCRL-RAMP1 (O60894 27-148 partner): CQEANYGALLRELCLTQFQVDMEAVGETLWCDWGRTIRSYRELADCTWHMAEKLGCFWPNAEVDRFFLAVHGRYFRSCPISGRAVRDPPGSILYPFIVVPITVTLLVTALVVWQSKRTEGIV

CALCR-RAMP2 = CALCR-RAMP2 (Homo sapiens, UniProt O60895+P30988); assay: gpcrMAX PathHunter beta-arrestin
CCKAR = CCKAR (Homo sapiens, UniProt P32238); assay: gpcrMAX PathHunter beta-arrestin
CCR10 = CCR10 (Homo sapiens, UniProt P46092); assay: gpcrMAX PathHunter beta-arrestin
CCR6 = CCR6 (Homo sapiens, UniProt P51684); assay: gpcrMAX PathHunter beta-arrestin
CHRM3 = CHRM3 (Homo sapiens, UniProt P20309); assay: gpcrMAX PathHunter beta-arrestin
CXCR2 = CXCR2 (Homo sapiens, UniProt P25025); assay: gpcrMAX PathHunter beta-arrestin
Chain of CXCR2 (P25025 whole entry): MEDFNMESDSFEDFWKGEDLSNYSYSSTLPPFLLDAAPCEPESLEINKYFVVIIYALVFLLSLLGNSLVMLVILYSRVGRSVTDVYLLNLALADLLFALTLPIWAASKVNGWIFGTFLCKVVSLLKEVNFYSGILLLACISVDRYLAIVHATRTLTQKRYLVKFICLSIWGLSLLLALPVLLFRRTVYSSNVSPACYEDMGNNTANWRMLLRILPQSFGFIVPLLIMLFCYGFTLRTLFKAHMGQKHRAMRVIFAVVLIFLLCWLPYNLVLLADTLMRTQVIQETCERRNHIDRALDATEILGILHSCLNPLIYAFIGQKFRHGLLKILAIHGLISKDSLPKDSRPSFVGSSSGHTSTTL

CXCR6 = CXCR6 (Homo sapiens, UniProt O00574); assay: gpcrMAX PathHunter beta-arrestin
Chain of CXCR6 (O00574 whole entry): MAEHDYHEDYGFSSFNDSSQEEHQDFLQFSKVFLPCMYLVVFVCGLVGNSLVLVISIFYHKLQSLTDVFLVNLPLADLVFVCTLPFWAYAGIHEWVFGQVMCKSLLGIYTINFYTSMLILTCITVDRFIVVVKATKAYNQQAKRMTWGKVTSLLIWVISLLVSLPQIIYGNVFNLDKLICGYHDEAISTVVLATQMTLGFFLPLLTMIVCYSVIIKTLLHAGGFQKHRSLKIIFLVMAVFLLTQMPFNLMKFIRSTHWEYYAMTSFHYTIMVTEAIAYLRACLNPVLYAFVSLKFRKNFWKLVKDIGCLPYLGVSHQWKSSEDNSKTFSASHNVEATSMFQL

DRD4 = DRD4 (Homo sapiens, UniProt P21917); assay: gpcrMAX PathHunter beta-arrestin
Chain of DRD4 (P21917 whole entry): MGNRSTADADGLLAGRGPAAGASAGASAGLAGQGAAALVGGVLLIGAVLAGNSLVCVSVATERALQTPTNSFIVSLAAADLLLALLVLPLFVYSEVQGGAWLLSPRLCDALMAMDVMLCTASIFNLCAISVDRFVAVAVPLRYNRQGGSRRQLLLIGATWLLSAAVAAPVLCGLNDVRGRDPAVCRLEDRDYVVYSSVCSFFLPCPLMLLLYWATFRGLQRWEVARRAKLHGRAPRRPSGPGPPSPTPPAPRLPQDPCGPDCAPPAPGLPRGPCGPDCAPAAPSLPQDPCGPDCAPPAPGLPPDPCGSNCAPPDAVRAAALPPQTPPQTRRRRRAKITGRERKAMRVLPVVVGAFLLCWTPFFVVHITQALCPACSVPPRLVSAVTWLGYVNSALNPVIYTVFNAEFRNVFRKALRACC

EDG1 = EDG1 (Homo sapiens, UniProt P21453); assay: gpcrMAX PathHunter beta-arrestin
EDG6 = EDG6 (Homo sapiens, UniProt O95977); assay: gpcrMAX PathHunter beta-arrestin
EDG7 = EDG7 (Homo sapiens, UniProt Q9UBY5); assay: gpcrMAX PathHunter beta-arrestin
F2R = F2R (Homo sapiens, UniProt P25116); assay: gpcrMAX PathHunter beta-arrestin
FFAR1 = FFAR1 (Homo sapiens, UniProt O14842); assay: gpcrMAX PathHunter beta-arrestin
FPR1 = FPR1 (Homo sapiens, UniProt P21462); assay: gpcrMAX PathHunter beta-arrestin
GALR1 = GALR1 (Homo sapiens, UniProt P47211); assay: gpcrMAX PathHunter beta-arrestin
GRPR = GRPR (Homo sapiens, UniProt P30550); assay: gpcrMAX PathHunter beta-arrestin
HCRTR2 = HCRTR2 (Homo sapiens, UniProt O43614); assay: gpcrMAX PathHunter beta-arrestin
HRH1 = HRH1 (Homo sapiens, UniProt P35367); assay: gpcrMAX PathHunter beta-arrestin
Chain of HRH1 (P35367 whole entry): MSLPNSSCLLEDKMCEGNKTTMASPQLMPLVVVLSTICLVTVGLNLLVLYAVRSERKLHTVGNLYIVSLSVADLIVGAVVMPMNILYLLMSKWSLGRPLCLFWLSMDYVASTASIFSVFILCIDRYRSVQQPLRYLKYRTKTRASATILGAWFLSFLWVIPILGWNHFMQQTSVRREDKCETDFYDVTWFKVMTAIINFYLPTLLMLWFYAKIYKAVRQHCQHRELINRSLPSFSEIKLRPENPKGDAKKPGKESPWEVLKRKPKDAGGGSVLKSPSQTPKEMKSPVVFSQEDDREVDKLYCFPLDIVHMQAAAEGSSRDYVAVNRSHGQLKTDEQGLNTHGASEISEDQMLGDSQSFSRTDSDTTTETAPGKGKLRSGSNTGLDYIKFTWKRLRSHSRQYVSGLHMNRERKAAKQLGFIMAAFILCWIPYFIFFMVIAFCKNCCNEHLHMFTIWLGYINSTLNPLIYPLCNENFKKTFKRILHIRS

HTR2C = HTR2C (Homo sapiens, UniProt P28335); assay: gpcrMAX PathHunter beta-arrestin
P2RY4 = P2RY4 (Homo sapiens, UniProt P51582); assay: gpcrMAX PathHunter beta-arrestin
Chain of P2RY4 (P51582 whole entry): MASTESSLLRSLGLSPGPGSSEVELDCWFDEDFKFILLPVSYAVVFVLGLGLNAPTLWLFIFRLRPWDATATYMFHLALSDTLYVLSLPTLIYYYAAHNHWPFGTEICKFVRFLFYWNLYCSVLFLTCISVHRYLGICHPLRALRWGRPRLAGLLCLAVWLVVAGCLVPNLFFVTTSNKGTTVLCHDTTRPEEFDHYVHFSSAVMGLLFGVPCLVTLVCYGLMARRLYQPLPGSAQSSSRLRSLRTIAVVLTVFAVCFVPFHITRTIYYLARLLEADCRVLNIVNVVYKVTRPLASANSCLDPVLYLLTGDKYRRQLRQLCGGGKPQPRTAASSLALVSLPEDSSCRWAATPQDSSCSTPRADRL

PPYR1 = PPYR1 (Homo sapiens, UniProt P50391); assay: gpcrMAX PathHunter beta-arrestin
Chain of PPYR1 (P50391 whole entry): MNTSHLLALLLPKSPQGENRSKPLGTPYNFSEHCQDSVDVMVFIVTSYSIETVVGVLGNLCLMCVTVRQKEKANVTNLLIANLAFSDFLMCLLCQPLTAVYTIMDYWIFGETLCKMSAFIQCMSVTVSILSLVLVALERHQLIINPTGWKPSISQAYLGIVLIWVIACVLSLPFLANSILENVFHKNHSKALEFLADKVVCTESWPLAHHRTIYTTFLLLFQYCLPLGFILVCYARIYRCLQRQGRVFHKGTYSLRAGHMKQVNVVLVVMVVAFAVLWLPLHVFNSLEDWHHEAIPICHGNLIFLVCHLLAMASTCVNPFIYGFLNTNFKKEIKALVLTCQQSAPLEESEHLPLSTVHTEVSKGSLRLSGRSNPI

PROKR2 = PROKR2 (Homo sapiens, UniProt Q8NFJ6); assay: gpcrMAX PathHunter beta-arrestin
SSTR1 = SSTR1 (Homo sapiens, UniProt P30872); assay: gpcrMAX PathHunter beta-arrestin
Chain of SSTR1 (P30872 whole entry): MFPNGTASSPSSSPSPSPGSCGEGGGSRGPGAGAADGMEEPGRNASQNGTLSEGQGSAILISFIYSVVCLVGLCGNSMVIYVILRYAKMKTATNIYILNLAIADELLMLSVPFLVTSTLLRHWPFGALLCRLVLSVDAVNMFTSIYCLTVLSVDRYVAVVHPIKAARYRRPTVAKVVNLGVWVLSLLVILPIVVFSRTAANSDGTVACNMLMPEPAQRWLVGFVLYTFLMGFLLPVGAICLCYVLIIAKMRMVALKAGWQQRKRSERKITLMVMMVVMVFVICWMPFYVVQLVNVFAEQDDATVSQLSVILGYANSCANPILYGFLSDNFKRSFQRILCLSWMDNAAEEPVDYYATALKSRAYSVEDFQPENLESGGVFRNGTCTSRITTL

TACR1 = TACR1 (Homo sapiens, UniProt P25103); assay: gpcrMAX PathHunter beta-arrestin
TACR3 = TACR3 (Homo sapiens, UniProt P29371); assay: gpcrMAX PathHunter beta-arrestin
Chain of TACR3 (P29371 whole entry): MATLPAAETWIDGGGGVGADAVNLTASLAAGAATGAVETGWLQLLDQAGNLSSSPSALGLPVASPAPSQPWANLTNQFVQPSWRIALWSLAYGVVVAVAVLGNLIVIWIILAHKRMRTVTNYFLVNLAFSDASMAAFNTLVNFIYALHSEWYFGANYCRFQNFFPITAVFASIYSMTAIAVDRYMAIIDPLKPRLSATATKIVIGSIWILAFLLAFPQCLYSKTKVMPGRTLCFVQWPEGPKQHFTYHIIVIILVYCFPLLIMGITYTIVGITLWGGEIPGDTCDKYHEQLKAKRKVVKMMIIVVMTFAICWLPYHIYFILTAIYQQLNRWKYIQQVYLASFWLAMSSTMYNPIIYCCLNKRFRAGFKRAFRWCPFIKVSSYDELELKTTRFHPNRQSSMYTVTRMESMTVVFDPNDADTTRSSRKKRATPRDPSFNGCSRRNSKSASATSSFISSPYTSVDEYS

UTR2 = UTR2 (Homo sapiens, UniProt Q9UKP6); assay: gpcrMAX PathHunter beta-arrestin

Cc1c(Cl)cccc1NC(=O)c1sc2nc3c(cc2c1N)C(=O)CCC3 [Compound 1]
GI50 (BR:MDA-MB-231): 141 nM | GI50 (CNS:SNB-19): 70.1 nM | GI50 (CO:HCC-2998): 213 nM | GI50 (CO:HT29): 49 nM | GI50 (LE:SR): 74.2 nM | GI50 (LC:NCI-H226): 102 nM | GI50 (OV:OVCAR-8): 279 nM | GI50 (OV:SK-OV-3): 60.6 nM | GI50 (RE:A498): 23.2 nM | inhibition at 10 µM (ADRA1B): 11% | inhibition at 10 µM (ADRA2A): 8% | inhibition at 10 µM (AGTRL1): 5% | inhibition at 10 µM (BRS3): 17% | inhibition at 10 µM (CALCRL-RAMP1): 6% | inhibition at 10 µM (CALCR-RAMP2): 0% | inhibition at 10 µM (CCKAR): 6% | inhibition at 10 µM (CCR10): -49% | inhibition at 10 µM (CCR6): -6% | inhibition at 10 µM (CHRM3): 14% | inhibition at 10 µM (CXCR2): 33% | inhibition at 10 µM (CXCR6): 5% | inhibition at 10 µM (DRD4): -7% | inhibition at 10 µM (EDG1): -6% | inhibition at 10 µM (EDG6): -6% | inhibition at 10 µM (EDG7): -8% | inhibition at 10 µM (F2R): 5% | inhibition at 10 µM (FFAR1): -59% | inhibition at 10 µM (FPR1): 16% | inhibition at 10 µM (GALR1): 12% | inhibition at 10 µM (GRPR): 11% | inhibition at 10 µM (HCRTR2): 8% | inhibition at 10 µM (HRH1): 13% | inhibition at 10 µM (HTR2C): -4% | inhibition at 10 µM (P2RY4): -16% | inhibition at 10 µM (PPYR1): -18% | inhibition at 10 µM (PROKR2): -3% | inhibition at 10 µM (SSTR1): -62% | inhibition at 10 µM (TACR1): -3% | inhibition at 10 µM (TACR3): 5% | inhibition at 10 µM (UTR2): 10%
